Reference: US20240365774A1, “METHODS FOR CRYOPROTECTION AND LYOPROTECTION OF CELLS” (LONZA LTD, priority 2021, published 2024)
“Also recorded” adds a separate entry of the source.

Tested on: human mesenchymal stem cells (hMSCs)
Assay: Freeze-thaw of hMSCs in CPA formulations at −80° C., viability by alamarBlue assay
Format: cell-based
Description: Adherent bone marrow derived human mesenchymal stem cells (hMSCs) (ATCC) were expanded to create a cell bank and stored in the vapor phase of liquid nitrogen in growth medium supplemented with 50% FBS and 7.5% DMSO at passage 3. Aliquots of those samples were warmed in a 37° C. water bath and cultured in MSCGM™ Mesenchymal Stem Cell Growth Medium BulletKit™ (containing FBS, Lonza); a commercially available medium that facilitates undifferentiated proliferation of hMSCs. The cells were kept in a humidified incubator at 37° C. and 5% CO2, whilst the growth medium was changed every 3-4 days. When hMSCs reached confluence of ˜90%, they were split and re-seeded at ˜5000 cells/cm^2 to facilitate further expansion. For experiments, cells between passages 4-8 were used. […]
For frozen samples, that is for samples after freezing and thawing, viability was measured by performing an alamarBlue™ assay (Invitrogen) according to the manufacturer's instructions. […] This reaction only takes place in cells that are metabolically active (viable), thus correlating measured fluorescence with viable cells. […] Assay reagent was then applied and, after a 4 h incubation, fluorescence was measured using a SpectraMax® iD3 with wavelengths of λex=550 nm and λem=590 nm. Background fluorescence values were subtracted from the measurements and compared to fluorescence values of untreated cells.

| SMILES | viable cells after freeze-thaw (5% DMSO control) | viable cells after freeze-thaw (cryoprotection) (urea alone, 0.05, 0.1, 0.2 and 0.5 M, FIG. 1A) |
| --- | --- | --- |
| C[S+](C)[O-] [DMSO, dimethyl sulfoxide, reference compound] | 58% |  |
| NC(N)=O [urea] |  | virtually no viable cells; also recorded: does not facilitate cryoprotection |
